Patent US4339378A, “N-Acylcarnosine aluminum salts” (Nippon Chemiphar Co., Ltd., priority 1979, dated 1982)

Legend:
Type in all cases: in vivo, male Donryu strain rats
Shay's ulcer in rats = experiment: Shay's ulcer (pylorus ligation) in rats; conditions: for Ulcer index: total ulcerated area in forestomach
Description: Shay's ulcer: Groups of ten male Donryu strain rats each weighing 210 to 230 g were deprived of food for 48 hours. The pylorus of each rat was ligated according to the method of Shay et al [Gastroenterology, 5, 43-61 (1945)]. Each of the animals was allowed to stand abstained from food and water for further 14 hours and then sacrificed to remove its stomach. After collection of the gastric juice, the ulcerated area (mm^2) in the forestomach of each rat was measured under a dissecting microscope (10×). The total area (mm^2) of all the lesions of each rat was indicated as an ulcer index. Test medicine samples were given orally immediately after the pylorus ligation.

[1] = system: Aspirin-induced ulcer in rats; experiment: Aspirin-induced ulcer in rats; conditions: 1,000 mg/kg P.O., aspirin 100 mg/kg; for Ulcer index: total lesion length, control 17.7 ± 2.3
Description: Aspirin-induced ulcer: Groups of ten male Donryu strain rats each weighing 220 to 230 g were deprived of food for 24 hours. The pylorus of each rat was ligated under ether anethesia according to the method of S. Okabe et al [Jap. J. Pharmac. 24, 357-361 (1974)]. After the pylorus ligation, aspirin (100 mg/kg) was administered orally to each rat. Seven hours after the administration, each of the animals was sacrificed under ether anesthesia to remove its stomach. After collection of the gastric juice and treatment with a 1% formalin solution, the length (mm) of each lesion formed in the glandular portion was measured. The total length (mm) of all the lesions of each rat was indicated as an ulcer index. Test medicine samples were given orally immediately after the pylorus ligation.

[2] = system: Indomethacin-induced ulcer in rats; experiment: Indomethacin-induced ulcer in rats; conditions: 300 mg/kg P.O., indomethacin 25 mg/kg s.c.; for Ulcer index: total lesion length, control 16.3 ± 2.4
Description: Indomethacin-induced ulcer: Groups of ten male Donryu strain rats each weighing 200 to 215 g were deprived of food for 24 hours. Then, the pylorus was ligated under ether anethesia, after which indomethacin was administered subcutaneously in an amount of 25 mg/kg to each rat. Seven hours after the administration, each of the animals was sacrificed under ether anethesia to remove its stomach, followed by immersion in a 1% formalin solution for ten minutes. The stomach which had been semi-fixed was incised along its greater curvature, and the length (mm) of each lesion formed in the mucous membrane was measured under a dissecting microscope (10×). The total length (mm) of all the lesions of each rat was indicated as an ulcer index. Test medicine samples were given orally ten minutes before the pylorus logation.

[3] = system: Histamine-induced ulcer in rats; experiment: Histamine-induced ulcer in rats; conditions: 300 mg/kg P.O., histamine phosphate 300 mg/kg i.p.; for Ulcer index: total lesion length, control 24.1 ± 4.7
Description: Histamine-induced ulcer: Groups of ten male Donryu strain rats each weighing 210 to 230 g were deprived of food for 48 hours and then administered intraperitoneally with histamine phosphate (300 mg/kg). Four hours after the administration, each of the animals was sacrificed under ether anesthesia, followed by removal of its stomach and immersion in a 1% formalin solution for ten minutes. The stomach which had been semi-fixed was incised along the greater curvature, and the length (mm) of each lesion was measured under a dissecting microscope (10×). The total length (mm) of all the lesions of each rat was indicated as an ulcer index. Test medicine samples were given orally before the histamine administration.

Stress ulcer in rats = experiment: Stress ulcer (restraint and water immersion) in rats; conditions: for Ulcer index: total lesion length in glandular portion, control 15.2 ± 3.2
Description: Stress ulcer: Groups of ten male Donryu strain rats each weighing 240 to 260 g were placed in a stress cage which served to immobilize the animals therein and then immersed in a water bath of 23° C. on a level with the xiphoid process according to the method of K. Takagi et al [Jap. J. Pharmac., 18 (9), 9-19 (1968)], thereby imposing stress on each rat. Seven hours after the immersion, each of the animals was withdrawn from the water bath and immediately sacrificed by a blow on the head, followed by removal of the stomach of each rat. The stomach was slightly inflated by injecting a 1% formalin solution and then immediately immersed in a 1% formalin solution, followed by incising the stomach along its greater curvature to measure the length (mm) of each lesion in the glandular portion under a dissecting microscope (10×). The total length (mm) of all the lesions of each rat was indicated as an ulcer index. Test medicine samples were given orally ten minutes before the immersion in water.

[4] = 1,000 mg/kg P.O., first series (control 2.4 ± 0.7)
[5] = 2,000 mg/kg P.O., second series (control 2.9 ± 0.4)
[6] = 1,000 mg/kg P.O., second series (control 2.9 ± 0.4)

Molecule | % Inhibition (Shay's ulcer in rats; [4]) [%] | Ulcer index (Shay's ulcer in rats; [4]) [mm^2] | % Inhibition [1] [%] | Ulcer index [1] [mm] | % Inhibition [2] | Ulcer index [2] [mm] | % Inhibition (Shay's ulcer in rats; [5]) [%] | Ulcer index (Shay's ulcer in rats; [5]) [mm^2] | % Inhibition [3] [%] | Ulcer index [3] [mm] | % Inhibition (Stress ulcer in rats; 300 mg/kg P.O.) [%] | Ulcer index (Stress ulcer in rats; 300 mg/kg P.O.) [mm] | % Inhibition (Stress ulcer in rats; 1,000 mg/kg P.O.) [%] | Ulcer index (Stress ulcer in rats; 1,000 mg/kg P.O.) [mm] | % Inhibition (Shay's ulcer in rats; [6]) [%] | Ulcer index (Shay's ulcer in rats; [6]) [mm^2]
NC(=O)CC[C@H](N)C(=O)O [L-Glutamine, L-glutamine] | 8.3 | 2.2 ± 0.8 | 66.1 | 6.0 ± 2.2 | 41.8% | 9.5 ± 4.1 | – | – | – | – | – | – | – | – | – | –
CC(=O)N[C@@H](CCC(N)=O)C(=O)O.[Al] [N-Acetyl-L-glutamine aluminum, N-acetyl-L-glutamine aluminum] | – | – | – | – | – | – | 69.0 | 0.9 ± 0.7 | – | – | – | – | – | – | – | –
NCCC(=O)N[C@@H](Cc1cnc[nH]1)C(=O)O [L-Carnosine, L-carnosine] | 12.5 | 2.1 ± 0.7 | – | – | ~ 0% | 17.3 ± 3.0 | – | – | 28.2 | 17.3 ± 3.2 | 6.6 | 14.2 ± 3.7 | 29.6 | 10.7 ± 2.2 | – | –
N-acetyl-L-carnosine aluminum salt [B] | – | – | – | – | – | – | – | – | – | – | – | – | – | – | 79.3 | 0.6 ± 0.8
N-acetylcarnosine aluminum salt | 80.4 | 0.47 ± 0.4 | 96.0 | 0.7 ± 0.6 | 63.2% | 6.0 ± 2.4 | – | – | 61.0 | 9.4 ± 2.0 | 46.7 | 8.1 ± 2.9 | 70.4 | 4.5 ± 2.4 | – | –
aluminum sucrose sulfate | 71.0 | 0.7 ± 0.8 | 79.1 | 3.7 ± 2.1 | 52.1% | 7.8 ± 3.0 | – | – | 40.2 | 14.4 ± 1.5 | – | – | 56.7 | 6.5 ± 6.0 | 72.4 | 0.8 ± 0.6
